Data on two compounds can be found in US7732398B2, “Medicinal uses of mu-opioid receptor agonists” (Cornell Research Foundation, Inc., priority 2000, dated 2010).

The test system of data set [1] is Male Sprague-Dawley rats. The experiment in a line: Rat tail-flick test, antinociceptive effects after intrathecal administration. The data set is classed as in vivo. The settings on record: yohimbine 100 μg alone, intrathecal. On the procedure:
Male Sprague-Dawley rats (300-350 g) were used.
Under light halothane anesthesia a needle connected to a Hamilton syringe was inserted percutaneously between spinal processes of the third and fourth lumbar vertebrae into the intrathecal space. A quick flick of the tail was observed when the tip of the needle entered the intrathecal space and was used as an indicator of successful puncture (Mestre et al., 1994). Drugs were delivered in a volume of 5 μl.
Intrathecal catheterization was performed at least two days prior to the experiment as previously described (Shimoyama et al., 1996). Briefly, under halothane anesthesia, a PE-10 tube was inserted through a small hole made in the atlanto-occipital membrane and threaded 8.5 cm down the intrathecal space to the lumbosacral level of the spinal cord. Drugs were delivered via the catheter in a volume of 5 μl, followed by 10 μl saline to flush the catheter.
To assess the antinociceptive effects of the opioids, the tail-flick test was used. Radiant heat was applied to the tail at 5-8 cm from the tip using a tail-flick apparatus (IITC, Woodland Hills, Calif.). The time from the onset of the heat to the withdrawal of the tail (tail-flick latency) was measured. The intensity of the radiant heat was adjusted so that baseline latencies would fall between 2.5 and 3.5 seconds. To avoid tissue damage the heat stimulus was discontinued after seven seconds. A baseline latency was obtained for each animal prior to the administration of any drug. Subsequent response latencies were determined at designated time points. Analgesic testing was performed by a blinded investigator.
Cumulative dose-response studies were performed for each drug using the tail-flick test (Shimoyama et al., 1996), (Shimoyama et al., 1997). Each drug was tested in a group of ten rats. After measuring the baseline latencies, increasing doses of each drug were administered via an intrathecal catheter until each animal in the group became an analgesic responder. An analgesic responder was defined as one whose response tail-flick latency was two or more times the value of the baseline latency. The response latency after each dosing was determined at peak analgesia, which was 15, 30 and 45 min after the administration of the MOR, DALDA and [Dmt^1]DALDA, respectively (based on preliminary studies). Any subsequent dosing was performed immediately after the determination of response latency. The percentage of analgesic responders in the group of rats for each cumulative dose was calculated, and a cumulative dose-response curve was constructed. The dose-response data were analyzed by the BLISS-21 computer program. This program maximized the log-likelihood function to fit a parallel set of gaussian normal sigmoid curves to the dose-response data and provides ED50 values, 95% confidence interval (CI) and relative potency estimates (Umans and Inturrisi, 1981).
The effect of naloxone on the antinociceptive effects of intrathecal MOR, DALDA and [Dmt^1]DALDA was examined. An equipotent dose (3 times the ED50 value determined in Study 1) of MOR, DALDA or [Dmt^1]DALDA was given via an intrathecal catheter. Tail-flick latencies were measured prior to the administration of any drug and at the time of peak analgesia for each compound (at 15, 30 and 45 minutes after administration, for MOR, DALDA and [Dmt^1]DALDA, respectively). Naloxone hydrochloride at a dose of 82.5 nmol or saline was administered via the intrathecal catheter 10 minutes prior to the second tail-flick testing. Four rats were tested for each combination of drugs. Data were analyzed using the paired t-test.
A dose 3 times the ED50 value of MOR, DALDA, or [Dmt^1]DALDA was administered intrathecally. Tail-flick latencies were measured prior to the administration of any drug (=baseline latency) and at the time of peak analgesia (=response latency). […]
(Thermal pain tests record how soon the animal reacts.)

Data set [2] is described as follows: In vivo pharmacokinetics in sheep. The settings on record: preliminary data, compared with DALDA and [Dmt1]DALDA. The procedure:
Five or more days were allowed for recovery from surgery prior to experimental studies.
In vivo pharmacokinetic studies In order to avoid the rapid distribution phase associated with intravenous bolus administration, all three peptides were administered as constant rate intravenous infusions to sheep. […] DALDA (0.6 mg/kg/hr) and [Dmt^1]DALDA (0.06 mg/kg/hr) were, therefore, infused via the venous catheter for a period of 4 hr. […] The current limit of sensitivity of the analytical method prevented the use of an even lower dose of [Dmt^1]DALDA. Blood samples (5 ml) were collected from the arterial catheter at 0, 1, 2, 3, 3.5, 4, 4.25, 4.5, 5, 6 and 7 hr.
Pharmacokinetic Analyses Plasma levels of DAMGO, DALDA and [Dmt^1]DALDA during and after the 4 h infusion were subjected to compartmental analysis using nonlinear regression (WINNONLIN). The derived pharmacokinetic constants were used to calculate the apparent volume of distribution at steady state (Vd), elimination half-life (t1/2) and clearance (CL).

“Also recorded” adds a separate entry of the source.

For the compound `COC(=O)[C@@H]1[C@H]2C[C@H]3c4[nH]c5ccccc5c4CCN3C[C@@H]2CC[C@@H]1O` [Yohimbine, yohimbine, reference compound], the “effect on tail-flick latency” value in data set [1] is “no effect; also recorded: not having any effect on tail-flick latency by itself”.

In the case of `C[C@@H](NC(=O)[C@@H](N)Cc1ccc(O)cc1)C(=O)NCC(=O)N(C)[C@@H](Cc1ccccc1)C(=O)NCCO` [DAMGO], in data set [2], the elimination in sheep result is listed as “much more rapid elimination”.
